Results reported in PMC4919790, “Allosteric modulation of AURKA kinase activity by a small-molecule inhibitor of its protein-protein interaction with TPX2” (Scientific Reports, 2016).
pEC50, pIC50, pKd, pKi: −log10 of the molar value. Where two headings read alike, the source gives them in different places.

What was measured:
[1] = molecular target: T1, AURKA-TPX2 interaction (His-tagged AURKA123–403 / TAMRA-labelled TPX2 1–43) (Homo sapiens, UniProt O14965); experiment: Fluorescence anisotropy (FA) competition assay: displacement of TAMRA-TPX2 1-43 from AURKA123-403
T1 sequence (O14965 123-403): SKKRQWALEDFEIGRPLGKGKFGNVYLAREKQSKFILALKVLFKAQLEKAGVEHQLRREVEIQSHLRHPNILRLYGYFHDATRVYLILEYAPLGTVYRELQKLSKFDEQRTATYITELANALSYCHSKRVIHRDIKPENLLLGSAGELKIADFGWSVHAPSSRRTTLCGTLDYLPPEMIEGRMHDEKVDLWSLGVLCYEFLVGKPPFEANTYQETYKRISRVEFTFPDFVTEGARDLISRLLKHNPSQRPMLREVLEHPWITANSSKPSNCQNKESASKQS
Source text: The HTS actives were resupplied and retested to check for dose-dependent inhibition of the PPI in FA assay.

pT287/pT288 AURKA126–390 = molecular target: T2, pT287/pT288 AURKA126–390 (Homo sapiens, UniProt O14965); experiment: HTRF in vitro kinase assay (KinEASE, Cisbio); assay type: biochemical; conditions: excess inhibitor (25x Ki), absence of TPX2
T2 construct: a T287/T288 doubly-phosphorylated recombinant AURKA126–390 in the absence of TPX2; 6xHis (inferred from reverse primer 4 of AurAG-126-390); made in house; host or cells: E. coli BL21 (DE3) with pUBS550
T2 sequence (O14965 126-390): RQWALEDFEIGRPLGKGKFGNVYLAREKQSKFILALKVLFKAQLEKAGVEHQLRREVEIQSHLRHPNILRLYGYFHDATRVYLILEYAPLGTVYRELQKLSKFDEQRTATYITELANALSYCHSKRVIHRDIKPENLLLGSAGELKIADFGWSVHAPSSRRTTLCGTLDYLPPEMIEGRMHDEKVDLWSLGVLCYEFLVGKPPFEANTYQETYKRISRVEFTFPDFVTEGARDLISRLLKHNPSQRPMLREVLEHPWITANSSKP

[2] = tested on: phosphorylated T288 (pT288) AURKA in mitotic HeLa cells; experiment: High-content AURKA T288-dephosphorylation assay; assay type: cell-based; conditions: Homo sapiens, read-out: EC50, % cells with below threshold pT288
Procedure: A modified version of the Aurora A mislocalisation assay using the same cells, doxycycline-treated controls, drugging plan, Bortezomib treatment, fixing protocol, Hoechst staining and secondary antibodies as above. The primary antibodies used were anti-phospho Aurora A Thr288 (Cell Signaling, #3079, 1:500) and anti-Histone H3 phospho S10 (Abcam, 14955, 1:2000). High-content imaging settings were the same as for the mislocalisation assay, but analysis was performed using the CellHealthProfiling v4 Bioapplication. Cells were identified in the Hoechst channel as above, and the resulting nuclear mask used for all subsequent measurements. Mitotic cells were selected from the images on the basis of phospho-histone H3 positivity, using a threshold 10 times above the image background. These selected cells were then measured for phospho-Aurora A staining intensity within a target area defined by expanding the nuclear mask by 8 pixels then collapsing it using a threshold for the phospho-Aurora channel, set to 3 times the background staining in this channel. Assay thresholds were calculated from the negative control wells of each plate as for the mislocalisation assay and ‘% dephosphorylated Aurora A T288’ scores were calculated for each well. EC50 values were calculated from four-parameter dose-response curves that were fitted using Prism GraphPad software (La Jolla, CA).

[3] = molecular target: T3, AURKA (Aurora-AG-126-390) (Homo sapiens, UniProt O14965); experiment: Isothermal titration calorimetry; assay type: binding; conditions: for Ligand efficiency (Leff): calculated using Ki or Kd values
T3 construct: was titrated into Aurora-AG-126-390 protein solution (30 μM); extra N-terminal Gly from cloning (the 'G' of the construct name); 6xHis (read by me from reverse primer 4); made in house; host or cells: E. coli BL21 (DE3) with pUBS550, co-expressed with lambda phosphatase (pBAT4-λPP)
T3 sequence (O14965 126-390): T2 sequence (O14965 126-390)
Procedure: Calorimetric titrations were performed on an iTC200 (MicroCal, Inc.) device. Protein was buffer exchanged into ITC buffer (Buffer C with 2% DMSO). Titration experiments were performed at 25 °C with an initial injection (0.4 μL) at a duration of 0.8 s, followed by 19 injections (2 μL) at a duration of 4 s. […] Binding isotherms were fit by non-linear regression using the single-site model provided by Origin software (MicroCal, Inc.). The stoichiometry of the interaction (N), equilibrium association constant (Ka) and change of enthalpy (ΔH) were floated during the fitting.

[4] = molecular target: T4, AURKAGSMGS-126-390 (non-phosphorylated, uncleaved His-tag) (Homo sapiens, UniProt O14965); experiment: In vitro auto-phosphorylation assay (anti-pT288 Western blot); assay type: biochemical; conditions: AurkinA 100 μM, ATP 100 μM, protein 30 μM, up to 40 min
T4 construct: Aurora-A kinase construct AurAGSMGS-126-391 was purified as described above; made in house; host or cells: E. coli BL21 (DE3) with pUBS550, co-expressed with lambda phosphatase
T4 sequence (O14965 126-391): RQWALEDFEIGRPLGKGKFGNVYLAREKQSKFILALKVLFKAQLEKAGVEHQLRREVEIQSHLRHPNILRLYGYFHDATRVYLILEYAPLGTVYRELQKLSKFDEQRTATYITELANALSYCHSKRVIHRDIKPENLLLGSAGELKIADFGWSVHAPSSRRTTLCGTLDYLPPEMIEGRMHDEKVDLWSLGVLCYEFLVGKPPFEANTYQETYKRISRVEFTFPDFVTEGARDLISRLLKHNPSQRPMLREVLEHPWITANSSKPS
Procedure: It has been extensively reported that auto-phosphorylation of […] in the activation loop stimulates AURKA kinase activity. […] For autophosphorylation experiments Aurora-A kinase construct […]-126-391 was purified as described above but using buffers containing no ATP and His-tag was left on the N-terminus. […] Control sample contained JNJ-7706621 (100 μM) that was added to the reaction prior ATP. 15 ng of each sample were run in 11% SDS-PAGE gels. Western blots were prepared by electro-blotting SDS-PAGE gels onto PVDF membranes (Millipore) and probing with anti-penta-his-tag antibody (1:2000 dilution, Qiagen, 34660) or anti-Aurora-A phosphoT288 antibodies (1:1000 dilution, Abcam, ab195748), followed by HRP conjugated […]-mouse antibodies (GE Healthcare) or HRP conjugated goat anti-rabbit antibodies (Abcam), respectively.

[5] = tested on: AURKA on the spindle in mitotic HeLa cells; experiment: High-content microscopy assay of AURKA mislocalisation from spindle microtubules; assay type: cell-based; conditions: Homo sapiens, 2 h treatment, % cells with below threshold AURKA intensity under TPX2 mask
Procedure: For quantitative determination of Aurora-A mislocalisation from spindle microtubules, cells were plated at a density of 0.75 × 10^5 cells per well of a clear flat bottom 96-well plate. On each plate a set of wells were treated with doxycycline as a positive control. After 24 h the compounds were diluted in […] Bortezomib (Selleck Chemicals) and treated for 2 h. Hereafter all steps were carried out at room temperature. The cells were fixed by addition of freshly prepared PHEM-buffered formaldehyde (100 μL per well) for 10 minutes (100 mM PIPES, 20 mM HEPES, 5 mM EGTA, 2 mM MgCl2, 0.2% TritonX-100, 6.4% formaldehyde). These were permeablised with 100 μl of PBS-T-T (1X PBS/0.1% Triton- 100/0.1% Tween-20) for 10 min, blocked in 3% BSA-PBS-T-T for 30 min. Hereafter all the steps including dilution of antibodies was done in the blocking solution. A cocktail of primary antibodies (50 μL, mouse anti-TPX2, Abcam 32795, 18D5-1, 1:500; rabbit anti-Aurora A, Millipore EP1008Y, 1:1000) for 1.5 h and washed thrice with the blocking solution. […]
The plates were scanned using Molecular Translocation protocol with 40X objective with 3 flurophore recognising channels. […] The software generated an overlay of TPX2-stained spindles (channel 2), and the average intensity of the Aurora-A (channel 3) within that mask was scored. […]

[6] = molecular target: T5, AURKA / mCherry-TPX2 1–43 (Homo sapiens, UniProt O14965); experiment: Co-immunoprecipitation of AURKA and mCherry-TPX2 1-43 from HeLa cell lysates; conditions: cell lysates (500 µg) incubated 2 h, 25-400 µM, +DOX
T5 construct: endogenous in cells; host or cells: HeLa FlpIn TREx lysate; AURKA endogenous, mCherry-TPX2 1-43 stably transfected and doxycycline-induced
T5 sequence (O14965 1-403): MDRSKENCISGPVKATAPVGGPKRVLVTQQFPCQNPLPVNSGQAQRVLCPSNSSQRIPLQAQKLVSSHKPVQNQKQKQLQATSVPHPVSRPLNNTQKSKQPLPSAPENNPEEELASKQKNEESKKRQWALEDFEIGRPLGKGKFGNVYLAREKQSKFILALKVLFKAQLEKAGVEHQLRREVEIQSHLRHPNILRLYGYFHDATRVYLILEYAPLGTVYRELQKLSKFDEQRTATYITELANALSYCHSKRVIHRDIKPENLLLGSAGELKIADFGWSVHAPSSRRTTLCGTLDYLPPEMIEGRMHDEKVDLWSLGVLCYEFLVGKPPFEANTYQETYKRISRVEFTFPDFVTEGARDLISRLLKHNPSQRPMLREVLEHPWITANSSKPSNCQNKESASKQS
Procedure: Stable HeLa FlpIn TREx cell line expressing a fusion mCherry-TPX2_1–43 protein upon addition of doxycycline ([…]) was generated (Supplementary Methods). This cell line was used for further experiments. For immunoblotting, proteins were extracted in lysis buffer (50 mM HEPES, pH 7.4; 100 mM NaCl, 0.5% NP-40, 10 mM EDTA, 20 mM β-glycerophosphate, 1 mM DTT, 1 mM sodium orthovanadate, 1 mM PMSF, protease inhibitors and phosphatase inhibitor (Roche)). 0.5 mg of lysate was used for co-immunoprecipitation. mCherry pull down was performed using RFP-trap (Chromotrap) following manufacturers’ instructions. Extracts were resolved by SDS-PAGE, transferred to PVDF membrane, blocked in TBS-Tween (50 mM Tris pH 7.6, 150 mM NaCl, 0.1% Tween-20) plus 5% non-fat dried milk, and probed with primary antibodies at 4 °C overnight. Membrane was incubated with secondary mouse HRP (GE Healthcare, NXA931) and rabbit HRP antibodies (Jackson Laboratories, 111-036-047) for 1 h at room temperature and the signal was developed using ECL or ECL prime reagent (GE Healthcare).
co -‐immunoprecipitation
(1 picture or pasted object on this page, not shown here)

[7] = Average IC50, Supplementary Table 1, FA assay
[8] = Calculated Ki, Supplementary Table 1, free-concentration corrected Cheng-Prusov
[9] = IC50, inhibition of AURKA:TPX2 interaction in FA assay, Fig. 1b
[10] = Ki from FA competition assay, free-concentration corrected Cheng-Prusov equations

| SMILES | pIC50 [1, 7] | pKi [1, 8] | N (stoichiometry, ITC fit) ([3]; single-site model fit) [Sites] | ∆H (ITC fit) ([3]; single-site model fit) [kcal/mol] | ∆S (ITC fit) ([3]; single-site model fit) [cal/mol/deg] | Ligand efficiency (Leff) [3] | pIC50 [1, 9] | pKi [1, 10] | also measured |
| --- | --- | --- | --- | --- | --- | --- | --- | --- | --- |
| O=C(O)c1cc(-c2cccc(Br)c2)nc2ccc(Cl)cc12 [AA29] | 4.46 | 5.13 |  |  |  |  |  |  |  |
| O=C(O)c1cc(-c2cccc(Br)c2)nc2ccccc12 [AA30] | 4.59 | 5.26 |  |  |  |  |  |  |  |
| O=C(O)c1cc(-c2cccc(Br)c2)nc2c(F)cccc12 [AurkinA, 2-(3-bromophenyl)-8-fluoroquinoline-4-carboxylic acid] |  |  | 0.924 | -23.09 | -52.6 |  |  |  | Maximal inhibition of kinase activity (plateau) (pT287/pT288 AURKA126–390): ~ 75%; pEC50 [2]: 3.87; -T∆S of binding ([3]; ITC): 15.7 kcal/mol; ∆H of binding ([3]; ITC): -23.1 kcal/mol; Effect on auto-phosphorylation of AURKA (pT288) [4]: significantly delayed; pEC50 [5]: 4.07; Effect on co-immunoprecipitation of AURKA with RFP (mCherry-TPX2 1-43) [6]: inhibited |
| O=C(O)c1ccccc1NC(=O)c1cc(-c2ccccc2)nc2ccccc12 [compound 1] |  |  | 0.975 ±0.0300 | -5.917 ± 0.2397 | 2.92 | 0.25 | 4.39 | 5.05 | pKd ([3]; 25 °C, read-out: Kd (ITC)): 4.97; Kd ([3]; 25 °C, read-out: pKd (ITC) (converted)): 10.5 µM; K (association constant, ITC fit) ([3]; single-site model fit): 94700 ± 7610 M⁻¹; Effect of JNJ-7706621 on the compound's inhibition of the AURKA-TPX2 1-43 interaction ([1]; [JNJ] = 0.4 μM vs DMSO): unaffected |
| O=C(O)c1cc(-c2ccccc2)nc2ccccc12 [compound 3, 2-phenyl-4-carboxyquinoline, reference compound] | 3.54 | 4.20 |  |  |  | 0.31 | 4.20 | 4.17 |  |
